Data on 1 molecule can be found in ChEMBL document CHEMBL5696441 (Nat Chem Biol, 2011).

Molecules are shown by their SMILES.

Assay [1] deals with Cyclin-dependent kinase 8 (Homo sapiens) (UniProt P49336). The experiment in a line: Inhibition of CDK8 (unknown origin) assessed as remaining activity at 1 uM by Kinome scan method relative to control.
Assay [2] concerns the target Leukocyte tyrosine kinase receptor (Homo sapiens) (UniProt P29376). In words: Inhibition of LTK (unknown origin) assessed as remaining activity at 1 uM by Kinome scan method relative to control.
Assay [3] addresses Serine/threonine-protein kinase 24 (Homo sapiens) (UniProt Q9Y6E0). In words: Inhibition of MST3 (unknown origin) assessed as remaining activity at 1 uM by Kinome scan method relative to control.
Assay [4] has as its target Serine/threonine-protein kinase pim-3 (Homo sapiens) (UniProt Q86V86). The experiment in a line: Inhibition of PIM3 (unknown origin) assessed as remaining activity at 1 uM by Kinome scan method relative to control.
For assay [5], the target named is Protein-tyrosine kinase 2-beta (Homo sapiens) (UniProt Q14289). In words: Inhibition of PYK2 (unknown origin) assessed as remaining activity at 1 uM by Kinome scan method relative to control.
Assay [6] deals with SRSF protein kinase 3 (Homo sapiens) (UniProt Q9UPE1). The experiment in a line: Inhibition of SRPK3 (unknown origin) assessed as remaining activity at 1 uM by Kinome scan method relative to control.
Assay [7] has as its target Activin receptor type-1B (Homo sapiens) (UniProt P36896). In words: Inhibition of human ACVR1B assessed as residual activity at 1 uM using RBER-CHKtide as substrate in presence of 33P-ATP by ProQinase assay relative to control.
Assay [8] deals with Serine/threonine-protein kinase MRCK alpha (Homo sapiens) (UniProt Q5VT25). The experiment in a line: Inhibition of human CDC42BPA assessed as residual activity at 1 uM using RB-S6P as substrate in presence of 33P-ATP by ProQinase assay relative to control.
The target in assay [9] is Cyclin-dependent kinase 1/cyclin B1 (Homo sapiens) (UniProt P06493+P14635). In words: Inhibition of human CDK1/CycB1 assessed as residual activity at 1 uM using RBER-CHKtide as substrate in presence of 33P-ATP by ProQinase assay relative to control. Format: protein-complex assay.
Assay [10] deals with Casein kinase I isoform gamma-3 (Homo sapiens) (UniProt Q9Y6M4). In words: Inhibition of human CK1gamma3 assessed as residual activity at 1 uM using casein as substrate in presence of 33P-ATP by ProQinase assay relative to control.
The target in assay [11] is Mitogen-activated protein kinase kinase kinase 8 (Homo sapiens) (UniProt P41279). The experiment in a line: Inhibition of human COT assessed as residual activity at 1 uM using RBER-CHKtide as substrate in presence of 33P-ATP by ProQinase assay relative to control.
Assay [12] has as its target Mitogen-activated protein kinase 3 (Homo sapiens) (UniProt P27361). The experiment in a line: Inhibition of human ERK1 assessed as residual activity at 1 uM using RBER-CHKtide as substrate in presence of 33P-ATP by ProQinase assay relative to control.
For assay [13], the target named is Tyrosine-protein kinase Fer (Homo sapiens) (UniProt P16591). In words: Inhibition of human FER assessed as residual activity at 1 uM using polyEY as substrate in presence of 33P-ATP by ProQinase assay relative to control.
The target in assay [14] is T1, Inhibitor of nuclear factor kappa-B kinase subunit alpha (Homo sapiens) (UniProt O15111).
T1 sequence (whole entry): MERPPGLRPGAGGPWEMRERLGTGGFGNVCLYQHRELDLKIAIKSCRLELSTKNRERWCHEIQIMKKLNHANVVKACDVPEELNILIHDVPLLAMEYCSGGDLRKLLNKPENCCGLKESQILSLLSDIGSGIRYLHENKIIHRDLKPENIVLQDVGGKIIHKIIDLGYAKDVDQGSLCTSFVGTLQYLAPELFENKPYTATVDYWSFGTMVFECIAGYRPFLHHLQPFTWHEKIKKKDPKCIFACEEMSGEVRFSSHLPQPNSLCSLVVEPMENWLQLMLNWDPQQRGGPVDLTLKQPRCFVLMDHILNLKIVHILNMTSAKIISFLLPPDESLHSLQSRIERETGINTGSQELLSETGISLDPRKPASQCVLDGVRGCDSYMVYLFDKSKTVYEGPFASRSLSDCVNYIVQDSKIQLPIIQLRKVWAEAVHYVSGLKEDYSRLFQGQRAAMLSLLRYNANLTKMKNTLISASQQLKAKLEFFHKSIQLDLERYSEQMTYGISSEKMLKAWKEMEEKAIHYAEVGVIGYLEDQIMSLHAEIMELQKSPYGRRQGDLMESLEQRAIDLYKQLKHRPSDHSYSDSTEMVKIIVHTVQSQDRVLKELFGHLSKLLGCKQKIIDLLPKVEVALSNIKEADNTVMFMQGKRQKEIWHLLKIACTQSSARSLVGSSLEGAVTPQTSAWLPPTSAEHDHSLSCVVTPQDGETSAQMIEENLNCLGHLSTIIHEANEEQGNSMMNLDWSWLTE
In words: Inhibition of human IKKalpha assessed as residual activity at 1 uM using RBER-CHKtide as substrate in presence of 33P-ATP by ProQinase assay relative to control.

The target of a further assay is TAK1/TAB1 (Homo sapiens) (UniProt Q15750+O43318). In words: Inhibition of human MAP3K7/MAP3K7IP1 assessed as residual activity at 1 uM using RB-S6P as substrate in presence of 33P-ATP by ProQinase assay relative to control. Type of assay: protein-complex assay.
Assay [15] deals with Hepatocyte growth factor receptor (Homo sapiens), P08581 [Y1230H]. The experiment in a line: Inhibition of human MET Y1230H mutant assessed as residual activity at 1 uM using poly(Ala,Glu,Lys,Tyr)6:2:5:1 as substrate in presence of 33P-ATP by ProQinase assay relative to control.
The target of assay [16] is Ribosomal protein S6 kinase alpha-4 (Homo sapiens) (UniProt O75676). The experiment in a line: Inhibition of human RPS6KA4 assessed as residual activity at 1 uM using RBER-CHKtide as substrate in presence of 33P-ATP by ProQinase assay relative to control.
Assay [17] can be described thus: Anti-inflammatory activity against human derived high respond PBMC cells assessed as inhibition in stimulated IL-6 cytokine release incubated for 2 hrs in the presence of LPS/SEB/aCD28 by Luminex based sandwich immunoassay. Type of assay: functional, cell-based.
Assay [18] is described as follows: Anti-inflammatory activity against human derived high respond PBMC cells assessed as inhibition in stimulated MCP-1 chemokine release at 10 uM incubated for 2 hrs in the presence of LPS/SEB/aCD28 by Luminex based sandwich immunoassay relative to control. Format: functional.
Assay [19] in a line: Anti-inflammatory activity against human derived high respond PBMC cells assessed as inhibition in stimulated IL-17A cytokine release incubated for 2 hrs in the presence of LPS/SEB/aCD28 by Luminex based sandwich immunoassay. Type of assay: functional, cell-based.
The nature of assay [20]: Anti-inflammatory activity against human derived high respond PBMC cells assessed as inhibition in stimulated IL-13 cytokine release incubated for 2 hrs in the presence of LPS/SEB/aCD28 by Luminex based sandwich immunoassay. Format: functional, cell-based.

Mitogen-activated protein kinase 3 (Homo sapiens), sequence (P27361 whole entry): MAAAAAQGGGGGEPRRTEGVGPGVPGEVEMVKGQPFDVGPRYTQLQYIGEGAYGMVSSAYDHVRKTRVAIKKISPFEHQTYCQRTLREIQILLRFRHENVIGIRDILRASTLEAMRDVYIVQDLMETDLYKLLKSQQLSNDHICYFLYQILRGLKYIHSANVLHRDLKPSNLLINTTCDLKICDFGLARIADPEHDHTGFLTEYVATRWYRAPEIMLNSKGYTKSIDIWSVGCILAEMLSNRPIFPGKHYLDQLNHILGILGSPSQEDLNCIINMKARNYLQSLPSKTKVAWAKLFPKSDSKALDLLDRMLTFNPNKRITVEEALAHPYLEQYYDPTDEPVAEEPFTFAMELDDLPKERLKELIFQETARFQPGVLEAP
Serine/threonine-protein kinase 24 (Homo sapiens), sequence (Q9Y6E0 whole entry, looked up): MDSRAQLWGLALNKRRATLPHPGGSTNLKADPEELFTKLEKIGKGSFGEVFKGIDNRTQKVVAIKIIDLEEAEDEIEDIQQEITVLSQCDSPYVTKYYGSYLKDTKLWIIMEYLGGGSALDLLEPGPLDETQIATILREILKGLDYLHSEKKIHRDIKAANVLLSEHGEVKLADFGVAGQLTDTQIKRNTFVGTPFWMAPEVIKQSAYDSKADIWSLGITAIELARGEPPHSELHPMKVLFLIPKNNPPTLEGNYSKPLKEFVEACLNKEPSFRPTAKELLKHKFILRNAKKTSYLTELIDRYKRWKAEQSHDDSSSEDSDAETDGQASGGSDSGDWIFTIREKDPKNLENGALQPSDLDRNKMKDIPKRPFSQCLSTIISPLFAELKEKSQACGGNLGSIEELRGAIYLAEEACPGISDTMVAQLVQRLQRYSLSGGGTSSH
Leukocyte tyrosine kinase receptor (Homo sapiens), sequence (P29376 whole entry): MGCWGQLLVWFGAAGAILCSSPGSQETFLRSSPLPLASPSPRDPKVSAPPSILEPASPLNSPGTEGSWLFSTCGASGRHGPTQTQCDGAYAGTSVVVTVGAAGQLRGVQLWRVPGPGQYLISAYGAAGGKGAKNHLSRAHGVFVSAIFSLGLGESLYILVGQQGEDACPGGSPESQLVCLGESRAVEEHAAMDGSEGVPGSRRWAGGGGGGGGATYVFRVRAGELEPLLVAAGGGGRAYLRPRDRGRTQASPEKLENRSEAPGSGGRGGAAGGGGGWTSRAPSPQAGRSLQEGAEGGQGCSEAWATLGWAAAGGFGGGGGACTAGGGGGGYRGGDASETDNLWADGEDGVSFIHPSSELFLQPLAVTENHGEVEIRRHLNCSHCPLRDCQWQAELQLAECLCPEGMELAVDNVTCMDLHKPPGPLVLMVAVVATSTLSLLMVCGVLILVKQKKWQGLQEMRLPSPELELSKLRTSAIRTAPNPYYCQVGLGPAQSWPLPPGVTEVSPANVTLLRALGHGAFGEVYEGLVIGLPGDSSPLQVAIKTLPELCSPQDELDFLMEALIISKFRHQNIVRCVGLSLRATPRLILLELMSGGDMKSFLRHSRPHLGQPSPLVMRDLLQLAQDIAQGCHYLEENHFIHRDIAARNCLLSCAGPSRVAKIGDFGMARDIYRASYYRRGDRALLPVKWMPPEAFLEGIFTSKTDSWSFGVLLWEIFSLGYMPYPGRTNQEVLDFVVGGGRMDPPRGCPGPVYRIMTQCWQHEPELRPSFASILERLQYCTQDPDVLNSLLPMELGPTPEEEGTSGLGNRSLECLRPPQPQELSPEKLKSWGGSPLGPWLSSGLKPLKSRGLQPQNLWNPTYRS
Protein-tyrosine kinase 2-beta (Homo sapiens), sequence (Q14289 whole entry, looked up): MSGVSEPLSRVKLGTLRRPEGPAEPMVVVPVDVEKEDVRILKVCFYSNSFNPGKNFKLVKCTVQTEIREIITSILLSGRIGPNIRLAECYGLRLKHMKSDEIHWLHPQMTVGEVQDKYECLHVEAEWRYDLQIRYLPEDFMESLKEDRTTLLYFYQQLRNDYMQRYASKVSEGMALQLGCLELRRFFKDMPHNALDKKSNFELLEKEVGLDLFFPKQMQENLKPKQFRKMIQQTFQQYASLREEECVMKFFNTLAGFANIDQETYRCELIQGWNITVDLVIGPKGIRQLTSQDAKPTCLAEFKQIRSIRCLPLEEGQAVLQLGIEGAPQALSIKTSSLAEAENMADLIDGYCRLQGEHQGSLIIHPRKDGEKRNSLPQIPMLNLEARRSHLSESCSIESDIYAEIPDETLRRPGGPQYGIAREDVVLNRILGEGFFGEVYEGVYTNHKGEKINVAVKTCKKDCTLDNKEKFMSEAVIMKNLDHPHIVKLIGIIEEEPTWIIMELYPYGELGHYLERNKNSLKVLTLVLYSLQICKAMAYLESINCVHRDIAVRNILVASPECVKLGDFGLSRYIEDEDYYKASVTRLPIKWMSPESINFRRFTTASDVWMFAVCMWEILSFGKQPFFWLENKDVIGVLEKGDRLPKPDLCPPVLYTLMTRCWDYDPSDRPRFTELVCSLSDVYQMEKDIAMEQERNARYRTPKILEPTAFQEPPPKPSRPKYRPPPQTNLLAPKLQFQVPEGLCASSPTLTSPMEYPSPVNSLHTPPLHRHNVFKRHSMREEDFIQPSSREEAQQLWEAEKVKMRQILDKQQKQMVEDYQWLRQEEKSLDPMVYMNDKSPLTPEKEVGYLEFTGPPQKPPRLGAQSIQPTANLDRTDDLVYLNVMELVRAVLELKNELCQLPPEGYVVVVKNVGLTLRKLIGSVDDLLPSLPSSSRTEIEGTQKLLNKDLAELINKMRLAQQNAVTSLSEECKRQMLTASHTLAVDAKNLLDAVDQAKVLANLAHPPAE
Cyclin-dependent kinase 8 (Homo sapiens), sequence (P49336 whole entry): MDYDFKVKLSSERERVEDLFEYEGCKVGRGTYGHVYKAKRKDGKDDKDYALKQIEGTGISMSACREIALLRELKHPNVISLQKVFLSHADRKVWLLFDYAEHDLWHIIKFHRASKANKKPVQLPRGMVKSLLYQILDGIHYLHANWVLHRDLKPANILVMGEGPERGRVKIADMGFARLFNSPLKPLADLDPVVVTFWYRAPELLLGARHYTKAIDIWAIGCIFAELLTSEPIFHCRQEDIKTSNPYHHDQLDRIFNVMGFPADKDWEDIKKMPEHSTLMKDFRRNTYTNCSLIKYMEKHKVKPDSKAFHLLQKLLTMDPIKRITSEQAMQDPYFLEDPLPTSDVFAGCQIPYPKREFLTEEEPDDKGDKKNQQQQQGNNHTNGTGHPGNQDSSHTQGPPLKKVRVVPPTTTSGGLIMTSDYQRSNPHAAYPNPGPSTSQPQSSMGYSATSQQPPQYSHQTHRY
Mitogen-activated protein kinase kinase kinase 8 (Homo sapiens), sequence (P41279 whole entry): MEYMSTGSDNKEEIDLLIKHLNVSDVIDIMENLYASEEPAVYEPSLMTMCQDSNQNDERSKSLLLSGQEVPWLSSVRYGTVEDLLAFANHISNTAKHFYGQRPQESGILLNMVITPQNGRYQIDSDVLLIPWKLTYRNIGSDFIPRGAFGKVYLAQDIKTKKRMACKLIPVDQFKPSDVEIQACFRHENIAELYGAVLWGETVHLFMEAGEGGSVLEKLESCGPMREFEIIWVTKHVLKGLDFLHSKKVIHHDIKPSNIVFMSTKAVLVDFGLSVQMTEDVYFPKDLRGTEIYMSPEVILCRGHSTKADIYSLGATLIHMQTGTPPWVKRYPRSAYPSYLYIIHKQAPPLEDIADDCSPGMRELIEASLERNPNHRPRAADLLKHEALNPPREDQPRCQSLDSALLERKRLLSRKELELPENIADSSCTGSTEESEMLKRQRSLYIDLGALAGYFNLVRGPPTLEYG
Cyclin-dependent kinase 1/cyclin B1 (Homo sapiens), sequence (P06493 whole entry, looked up, canonical isoform): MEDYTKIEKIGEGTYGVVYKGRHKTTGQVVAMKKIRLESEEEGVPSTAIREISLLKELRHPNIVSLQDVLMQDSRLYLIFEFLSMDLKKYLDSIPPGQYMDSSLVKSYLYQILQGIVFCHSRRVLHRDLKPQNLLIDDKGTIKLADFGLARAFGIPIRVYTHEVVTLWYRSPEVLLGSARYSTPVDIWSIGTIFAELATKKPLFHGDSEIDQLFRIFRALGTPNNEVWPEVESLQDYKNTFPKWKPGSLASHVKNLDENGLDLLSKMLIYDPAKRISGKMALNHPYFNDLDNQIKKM
Cyclin-dependent kinase 1/cyclin B1 (Homo sapiens), sequence (P14635 whole entry, looked up, canonical isoform): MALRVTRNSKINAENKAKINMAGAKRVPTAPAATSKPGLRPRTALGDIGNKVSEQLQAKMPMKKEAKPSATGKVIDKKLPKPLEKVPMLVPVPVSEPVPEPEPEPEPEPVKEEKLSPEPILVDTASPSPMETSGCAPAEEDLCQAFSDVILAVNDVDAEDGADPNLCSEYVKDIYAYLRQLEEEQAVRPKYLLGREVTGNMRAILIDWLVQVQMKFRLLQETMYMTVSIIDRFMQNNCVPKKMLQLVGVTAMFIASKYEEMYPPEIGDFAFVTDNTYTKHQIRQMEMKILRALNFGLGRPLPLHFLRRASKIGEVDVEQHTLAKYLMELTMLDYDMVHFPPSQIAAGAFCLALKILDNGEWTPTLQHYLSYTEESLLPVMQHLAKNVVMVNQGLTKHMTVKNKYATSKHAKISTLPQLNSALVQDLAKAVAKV
SRSF protein kinase 3 (Homo sapiens), sequence (Q9UPE1 whole entry): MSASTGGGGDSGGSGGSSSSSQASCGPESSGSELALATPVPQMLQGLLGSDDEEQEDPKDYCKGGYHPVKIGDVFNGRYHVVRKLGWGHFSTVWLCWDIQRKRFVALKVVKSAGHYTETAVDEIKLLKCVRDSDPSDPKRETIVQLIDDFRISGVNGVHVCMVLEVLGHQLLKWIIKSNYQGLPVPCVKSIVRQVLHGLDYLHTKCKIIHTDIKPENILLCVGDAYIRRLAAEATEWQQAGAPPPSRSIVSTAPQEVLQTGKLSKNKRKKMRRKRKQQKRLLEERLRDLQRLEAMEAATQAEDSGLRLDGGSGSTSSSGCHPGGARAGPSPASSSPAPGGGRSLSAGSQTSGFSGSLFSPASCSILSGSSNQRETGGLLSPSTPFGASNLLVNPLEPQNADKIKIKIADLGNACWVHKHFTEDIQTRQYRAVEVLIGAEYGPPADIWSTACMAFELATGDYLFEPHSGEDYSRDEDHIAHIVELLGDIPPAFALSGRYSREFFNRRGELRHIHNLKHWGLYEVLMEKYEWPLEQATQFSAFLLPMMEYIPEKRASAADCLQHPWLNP

On to `O=C1c2ccc(Nc3ccc(F)cc3F)cc2CCc2ccc(OC[C@H](O)CO)cc21` [Skepinone-L], for which the Activity in [1], in assay [2], in assay [3], in [4], in assay [5] and in assay [6] was 100% throughout. The Activity in [7] worked out at 77%; in [8], 98%; in assay [9] it was 83%; in assay [10], 95%; in assay [11], 91%; in assay [12] it was 99%. Further, the Activity in assay [13] is 101%; in assay [14], 88%; at TAK1/TAB1 (Homo sapiens), 80%; in assay [15], 102%; in [16] it was 107%. Also, the figures for the IC50 in assay [17], in assay [19] and in [20] were 650 nM, 420 nM and 1940 nM, respectively. For the same molecule, the inhibition (in general, the percentage by which the read-out fell short of the control) at 10 µM in [18] came to 25%.
